Data set [1] is described as follows: Drug concentration in liquid formulations (liquid chromatography). In kind it is physicochemical. The settings on record: ethanol, Vitamin E TPGS and water formulation, ethanol less than two percent.
Protocol: The concentrations of each constituent were determined by liquid chromatography and are presented as weight by volume figures.
In another exemplary embodiment, the liquid formulation of sirolimus comprises water and ethanol as co-solvents and Vitamin E TPGS as the excipient. The liquid formulation was created utilizing the following process. Two hundred milligrams of sirolimus and two grams of ethanol were added to a pre-weighed twenty milliliter scintillation vial. The vial was vortexed and sonicated until the sirolimus was completely dissolved. Approximately six hundred milligrams of Vitamin E TPGS was then added to the solution of ethanol and sirolimus. The vial was vortexed again until a clear yellowish solution was obtained. Nitrogen gas was then used to reduce the amount of ethanol in the vial to approximately two hundred twenty-nine milligrams. In a separate vial, three hundred milligrams of Vitamin E TPGS was dissolved in eleven milliliters of purified water while undergoing vortexing. The Vitamin E TPGS and water solution was then added to the first vial containing the sirolimus, Vitamin E TPGS and ethanol. The first vial was then vortexed vigorously and continuously for three minutes.
In another exemplary embodiment, a liquid formulation of CCI-779, a sirolimus analog, is prepared utilizing ethanol, Vitamin E TPGS and water. […]
Data set [2] can be described thus: Porcine drug elution PK studies (in vivo release from stent coating). To be noted: after eight (8) days of implantation; single-layer sirolimus/cilostazol EVA/BMA coating with 100 μg BMA overcoat (FIG. 83).
A short description of data set [3]: In vitro release kinetics from stent coating. It is filed as physicochemical. The settings on record: single-layer sirolimus/cilostazol EVA/BMA coating with 100 μg BMA overcoat (FIG. 83). The source says: In the study, the rapamycin and Panzem® are incorporated into different layers of a polymeric coating. In this study, a Bx Velocity stent is coated with a four hundred microgram inner layer and a three hundred microgram outer layer. The inner layer comprises forty-five percent Panzem® and fifty-five percent EVA/BMA (50/50). […] There is no topcoat of just polymer in this study. Curve 7100 illustrates the release kinetics of Panzem® from the coating.
Another critical parameter for the performance of the thrombus resistance of a device coated with cilostazol is the duration of the drug release from the coating. This is of particular significance in the two weeks after device implantation. In the porcine drug elution PK studies of the dual drug eluting coating, both cilostazol and sirolius were slowly released from the coating, resulting in a sustained drug release profile. The purpose of the porcine PK study is to assess the local pharmacokinetics of a drug eluting stent at a given implantation time. Normally three stents are implanted in three different coronary arteries in a pig for a given time point and then retrieved for total drug recovery analysis. […] The stents are extracted and the total amount of drug remaining on the stents is determined by analysis utilizing HPLC (high performance liquid chromatography) for total drug amount. […]

In data set [4] the test system is patients undergoing coronary angioplasty. Briefly: MVP randomized clinical trial (angiographic and clinical endpoints). It is filed as in vivo, human. The text has this:
In addition, the invention enables the skilled practitioner to use probucol in conjunction with other percutaneous coronary interventions such as stenting if it is deemed appropriate. The present invention concerns the IVUS substudy from the MVP restenosis trial. MVP was a double-blind placebo-controlled randomized clinical trial with four study groups. The protocol was approved by the Montreal Heart Institute institutional review board. The MVP study design, inclusion and exclusion criteria have been previously described (N Engl J Med 1997; 365-372). Briefly, patients referred for elective coronary angioplasty were evaluated at least 30 days prior to their scheduled procedure. Eligible patients were asked to provide written informed consent. Patients were eligible if they were scheduled to undergo standard balloon angioplasty on at least one native coronary artery and had at least one de novo target lesion with luminal narrowing of fifty percent or more by caliper measurements. Beginning thirty days prior to scheduled angioplasty, patients were randomly assigned to receive either probucol alone, multivitamins alone, the combination of probucol and multivitamins, or placebo. Probucol 500 mg or matched placebo was administered twice daily. The multivitamin complex, consisting of vitamin E 700 IU, vitamin C 500 mg and beta-carotene 30,000 IU, or matched placebo was also administered in one tablet twice daily. […] Balloon angioplasty was performed according to standard techniques. […] The sequence of contrast injections with the exact degree of angulation was recorded and used for every angiogram. Coronary arteriograms (pre-, post-procedure, and final follow-up) were analyzed together using the Coronary Measurement System (CMS), as previously reported. Patient follow-up included clinical evaluation, exercise treadmill testing, blood chemistry, pill count and drug level measurements, and dietary assessment and intervention. Patients were readmitted for follow-up coronary angiography at five to seven months. Patients in whom arteriography was performed for clinical reasons before the fifth month returned for repeat angiographic examination at five to seven months if no definite angiographic restenosis was present on at least one dilated site. During follow-up, patients with recurrence or exacerbation of anginal symptoms were treated with medical therapy or revascularization procedures (reangioplasty or Coronary Bypass Surgery) as clinically indicated. Patients with angiographic restenosis (lesion>50%. at follow-up) without clinical evidence of ischemia were not subjected to further interventional procedures.

Another data set has as its system LDL. Briefly: LDL peroxidation lag phase ex vivo (diene conjugates after addition of copper ions). It is filed as biochemical, human. To be noted: treatment for one month; compared with vitamins alone or the combination of probucol and vitamins; preliminary results.
The test system of data set [5] is coronary arteries (angioplasty site). In words: IVUS substudy of the MVP restenosis trial. In kind it is in vivo, human. The settings on record: for EEM area / Lumen area / Wall area: per segment, mean ± SD. The procedure:
The present invention concerns the IVUS substudy from the MVP restenosis trial. MVP was a double-blind placebo-controlled randomized clinical trial with four study groups. The protocol was approved by the Montreal Heart Institute institutional review board. The MVP study design, inclusion and exclusion criteria have been previously described (N Engl J Med 1997; 365-372). Briefly, patients referred for elective coronary angioplasty were evaluated at least 30 days prior to their scheduled procedure. Eligible patients were asked to provide written informed consent. Patients were eligible if they were scheduled to undergo standard balloon angioplasty on at least one native coronary artery and had at least one de novo target lesion with luminal narrowing of fifty percent or more by caliper measurements.
Beginning thirty days prior to scheduled angioplasty, patients were randomly assigned to receive either probucol alone, multivitamins alone, the combination of probucol and multivitamins, or placebo. Probucol 500 mg or matched placebo was administered twice daily. The multivitamin complex, consisting of vitamin E 700 IU, vitamin C 500 mg and beta-carotene 30,000 IU, or matched placebo was also administered in one tablet twice daily. All patients received an extra dose of probucol 1000 mg and/or vitamin E 2000 IU and/or matched placebos twelve hours before angioplasty, according to randomization assignment. […] All patients received aspirin 325 mg daily started at least thirty days before procedure and continued for the study period. Balloon angioplasty was performed according to standard techniques. Intracoronary nitroglycerin (0.3 mg) was given for each target artery for both pre- and post-dilatation angiography and at follow-up. The sequence of contrast injections with the exact degree of angulation was recorded and used for every angiogram. Coronary arteriograms (pre-, post-procedure, and final follow-up) were analyzed together using the Coronary Measurement System (CMS), as previously reported. Patient follow-up included clinical evaluation, exercise treadmill testing, blood chemistry, pill count and drug level measurements, and dietary assessment and intervention. Patients were readmitted for follow-up coronary angiography at five to seven months. Patients in whom arteriography was performed for clinical reasons before the fifth month returned for repeat angiographic examination at five to seven months if no definite angiographic restenosis was present on at least one dilated site. During follow-up, patients with recurrence or exacerbation of anginal symptoms were treated with medical therapy or revascularization procedures (reangioplasty or Coronary Bypass Surgery) as clinically indicated. Patients with angiographic restenosis (lesion>50%. at follow-up) without clinical evidence of ischemia were not subjected to further interventional procedures.
IVUS examinations were performed using 30 MHZ, 3.5 French mechanical (1800 rpm) ultrasound catheters (Boston Scientific, Natick, Mass.) and a dedicated imaging console (Hewlett Packard, Andover, Mass.) (Curr Opin Cardiol 1994; 9:627-633). In six patients, both examinations were performed using 20 MHZ, 3.5 French 64-element IVUS catheters (Endosonics, Pleasanton, Calif.). IVUS studies were first performed after coronary angioplasty (after final balloon inflation) and then after follow-up angiography (before any subsequent intervention) and were always preceded by administration of intracoronary nitroglycerin (0.3 mg). IVUS imaging was monitored by an experienced cardiologist, but the angioplasty operator was blinded to ultrasound results to avoid altering standard balloon angioplasty practice. The IVUS catheter was advanced distal to the dilated site to an easily recognizable landmark, most often a side branch, which was noted and used for follow-up IVUS examination. One angiographic view was recorded on videotape before beginning pullback of the IVUS catheter. […]

[6] abbreviates: probucol given alone, compared to placebo.
[7] abbreviates: Follow-up Post PTCA (follow-up minus after angioplasty), listed as Probucol Alone.
Setting [8] is: Follow-up Post PTCA, efficacy analysis in compliant patients.
Where [9] appears, read: Follow-up, listed as Probucol Alone.

Consider `CO[C@H]1C[C@@H]2CC[C@@H](C)[C@@](O)(O2)C(=O)C(=O)N2CCCC[C@H]2C(=O)O[C@H]([C@H](C)C[C@@H]2CC[C@@H](OC(=O)C(C)(CO)CO)[C@H](OC)C2)CC(=O)[C@H](C)/C=C(\C)[C@@H](O)[C@@H](OC)C(=O)[C@H](C)C[C@H](C)/C=C/C=C/C=C/1C` [CCI-779], for which, in data set [1], the “concentration in the final solution (HPLC assay)” value was 15000 µg/mL.

In the case of `O=C1CCc2cc(OCCCCc3nnnn3C3CCCCC3)ccc2N1` [cilostazol, 6[4-(1-cyclohexyl-1H-tetrazol-5-yl)-butoxy]-3,4-dihydro-2-(1H)-quinolinone], the “drug remaining in the drug coating” value in data set [2] is recorded as around 80%. Also, the “in vitro drug release” value in data set [3] is around 35%.

With `CC(C)(Sc1cc(C(C)(C)C)c(O)c(C(C)(C)C)c1)Sc1cc(C(C)(C)C)c(O)c(C(C)(C)C)c1` [probucol, 4,4′-([1-methylethylidene)bis(thio)]bis-[2,6-bis(1,1-dimethylethyl)phenol]], in data set [4] (MVP study), the patients with restenosis entry was “over twenty”. Besides, the “reduction in the need for repeat angioplasty” value in data set [4] (probucol given alone, at 6 month, compared to placebo) is reported as “fifty-eight”. Moreover, in data set [4] (setting [6]), the “reduction in angiographic lumen loss” value was “sixty-eight” and the “reduction in restenosis rate per segment” value is recorded as “forty-seven”. Moreover, in the data set on LDL, the “protection against LDL oxidation (lag phase for LDL peroxidation)” value is “significantly greater protection against LDL oxidation”. In addition, in data set [5] (After Angioplasty), the EEM area worked out at 12.20 ± 4.66 mm^2, the Lumen area was 4.62 ± 1.59 mm^2 and the Wall area came to 7.57 ± 3.98 mm^2. In data set [5] (Follow-up Post PTCA (follow-up minus after angioplasty)), the “Lumen area, change” value is reported as −0.15 ± 1.70 mm^2. In addition, in data set [5] (setting [7]), the “EEM area, change” value is recorded as 1.74 ± 1.80 mm^2 and the “Wall area, change” value amounted to 1.89 ± 1.87 mm^2. Further, in data set [5] (Follow-up Post PTCA (follow-up minus after angioplasty), listed as probucol alone), the “EEM area, change” value was found to be 1.74 mm^2. For the same molecule, in data set [5] (setting [8]), the “EEM area, change” value is listed as 1.74 ± 1.80 mm^2; the “Lumen area, change” value is reported as −0.15 ± 1.70 mm^2; the “Wall area, change” value stood at 1.89 ± 1.87 mm^2. In data set [5] (setting [9]), the EEM area was 13.93 ± 4.74 mm^2, the Lumen area amounted to 4.47 ± 1.93 mm^2 and the Wall area amounted to 9.46 ± 4.36 mm^2. Also, the “patients with an increase in EEM area of at least 1 mm^2 at follow-up” value in data set [5] (in vivo) was 72.0%. For the same molecule, in data set [5] (probucol only compared with placebo), the “increase in vessel enlargement” value was “seven hundred-thirty”.
